Test results published in patent US20240182413A1, “INSECTICIDAL COMPOUNDS” (Pluton Biosciences, Inc., priority 2022, published 2024).
Where “and” joins values, the source holds several entries; their conditions need not be identical. Equal entries are not always repeated. Where two headings read alike, the source gives them in different places.

Tests used:
[1] = system: Spodoptera frugiperda (fall armyworm) first instar larvae; assay: Spodoptera frugiperda killing assay (diet-surface overlay); type: in vivo; settings: for LC50: Spodoptera frugiperda
Protocol: Insect killing assays. Each compound was dissolved in dimethyl sulfoxide (DMSO). Killing dose curves were constructed for each compound by producing a two-fold dilution series of the compound (e.g., comprising approximately 16 serial dilutions of a stock for 3,3′-diindolylmethane and 3-((1H-Indol-2-yl)methyl)-1H-indole and comprising approximately 12 serial dilutions of a stock for 3,3′-diindolyl and 3,3′-(pyridin-4-ylmethylene)bis(1H-indole)). Dilutions were made in sterile NYSM broth as described above. The two-fold dilution series were tested in a killing bioassay as described below. Data were collected to construct a dose curve and determine the half-maximal lethal concentration (LC50) value.
Bioassays were performed using first instar larvae of the Lepidopteran species Spodoptera frugiperda (fall armyworm), with an N=16 for each concentration of compound tested. S. frugiperda larvae were purchased from Benzon Research, Inc. (Carlisle, PA). A diet-surface overlay format was used in which 1 milliliter of standard lepidopteran diet was placed in each well. One hundred microliters of sample were pipetted into each well and allowed to dry. A DMSO control was included with each set of samples.
During the development of embodiments of the technology described herein, experiments were conducted to test the killing of arundine against a panel of 11 insect species. […] Briefly, arundine was dissolved in dimethyl sulfoxide (DMSO). Killing dose curves were constructed by producing a two-fold dilution series of arundine. Dilutions were made in sterile NYSM as described. The two-fold dilution series were tested in a killing bioassay performed using first instar larvae of the species listed in Table 4, with an N=16 for each concentration of compound tested. A diet-surface overlay format was used in which 1 milliliter of standard lepidopteran diet was placed in each well. One hundred microliters of sample were pipetted into each well and allowed to dry. A DMSO control was included with each set of samples. […] Data were collected to construct a dose curve and determine the half-maximal lethal concentration (LC50) value.

Aedes aegypti larvae = assay: Aedes aegypti killing assay (larval bioassay, two-fold dilution series); type: in vivo; settings: Aedes aegypti, 72 h
Protocol: Insect killing assays. Each compound was dissolved in dimethyl sulfoxide (DMSO). Killing dose curves were constructed for each compound by producing a two-fold dilution series for each compound (e.g., comprising approximately 20 serial dilutions of a stock). Dilutions were made in sterile nutrient yeast extract salt medium (NYSM) broth. The NYSM contained 8 g/L nutrient broth powder, 0.5 g/L yeast extract, 1 mM MgCl2, 700 μM CaCl2, and 50 μM MnCl2 in water. The two-fold dilution series were tested in a killing bioassay as described below. Data were collected to construct a dose curve and determine the half-maximal lethal concentration (LC50) value.
Bioassays were performed using second or third instar Aedes aegypti larvae, with biological replication. Ae. aegpyti larvae were purchased from Benzon Research, Inc. (Carlisle, PA). Larvae were washed with sterile water before transfer to 24-well assay plates containing 1 mL of sterile water in each well. Each well contained 5 larvae. The final DMSO concentration in each assay well was 1%. Larval mortality was scored for each well at 24-hour timepoints after application. […] In Table 1, mean mortalities and standard deviations were calculated from at least three independent biological replicates. […] LC50 values were calculated using GraphPad Prism software.

Aedes aegypti = settings: previously shown; cited from earlier work
[2] = system: S. exigua (Beet armyworm) first instar larvae; assay: Insect panel killing assay (diet-surface overlay); type: in vivo
Protocol: (§1) During the development of embodiments of the technology described herein, experiments were conducted to test the killing of arundine against a panel of 11 insect species. Killing assays were performed as described in Example 2 for Spodoptera frugiperda. Briefly, arundine was dissolved in dimethyl sulfoxide (DMSO). Killing dose curves were constructed by producing a two-fold dilution series of arundine. Dilutions were made in sterile NYSM as described. The two-fold dilution series were tested in a killing bioassay performed using first instar larvae of the species listed in Table 4, with an N=16 for each concentration of compound tested. A diet-surface overlay format was used in which 1 milliliter of standard lepidopteran diet was placed in each well. One hundred microliters of sample were pipetted into each well and allowed to dry. A DMSO control was included with each set of samples. Spinosad (MilliporeSigma, catalog #33706) was used as a positive control for insecticidal activity, and water was used as an additional negative control. Data were collected to construct a dose curve and determine the half-maximal lethal concentration (LC50) value. In Table 4, % of insects killed is provided in the table cells for the concentrations listed at the top (2500, 625, 156, and 0 μg/mL arundine).

[3] = system: C. includens (Soybean looper) first instar larvae; assay: Insect panel killing assay (diet-surface overlay); type: in vivo
Protocol: as §1

[4] = system: S. eridania (Southern armyworm) first instar larvae; assay: Insect panel killing assay (diet-surface overlay); type: in vivo
Protocol: as §1

[5] = system: D. saccharalis (Sugarcane borer) first instar larvae; assay: Insect panel killing assay (diet-surface overlay); type: in vivo
Protocol: as §1

[6] = system: A. gemmatalis (Velvetbean caterpillar) first instar larvae; assay: Insect panel killing assay (diet-surface overlay); type: in vivo
Protocol: as §1

[7] = system: D. grandiosella (Southwestern corn borer) first instar larvae; assay: Insect panel killing assay (diet-surface overlay); type: in vivo
Protocol: as §1

[8] = system: H. virescens (Tobacco budworm) first instar larvae; assay: Insect panel killing assay (diet-surface overlay); type: in vivo
Protocol: as §1

[9] = system: H. zea (Corn earworm) first instar larvae; assay: Insect panel killing assay (diet-surface overlay); type: in vivo
Protocol: as §1

[10] = system: C. pomonella (Codling moth) first instar larvae; assay: Insect panel killing assay (diet-surface overlay); type: in vivo
Protocol: as §1

[11] = system: T. ni (Cabbage looper) first instar larvae; assay: Insect panel killing assay (diet-surface overlay); type: in vivo
Protocol: as §1

[12] = system: fall armyworm (Spodoptera frugiperda); settings: after seven days of exposure; cited from earlier work
Vip3A resistant FAW = assay: Killing of Vip3A resistant fall armyworm; type: in vivo, Spodoptera frugiperda; settings: 1000 ppm BIM compound, 20 μl on diet surface, 5-7 days
Protocol: (§2) During the development of embodiments of the technology provided herein, experiments were conducted to test the killing potency of arundine-derived BIM compounds against strains of fall armyworm (FAW) that are resistant to Bacillus thuringiensis (Bt) insecticidal proteins (e.g., Cry1Fa and Vip3A). Susceptible FAW (Spodoptera frugiperda) was obtained from Benzon Research Inc, Lancaster, PA. Cry1Fa resistant FAW originating from Puerto Rico was reared in a facility by Genective (Weldon, IL). Vip3A resistant FAW originating from southern US was reared in a facility by Genective (Weldon, IL).
(§3) FAW eggs were incubated at approximately 26° C. at 50% relative humidity until eclosion (approximately 3 days) and the hatch was timed to within 12 hours of infesting the diet plates. BIM compounds were obtained from frozen stocks, thawed, suspended in 5% DMSO along with NYSM buffer to provide a solution of 2000 ppm BIM compound in a total volume of 1.0 ml, and stored at −20° C. For testing, a single tube of each BIM compound sample was thawed at 4° C. NYSM buffer was warmed to room temperature. A volume of 750 μl. NYSM buffer was added to 750 μl from each 1.0-ml volume to prepare samples of 1.5 ml BIM compound at 1000 ppm for testing. A total of three BIM preparations per BIM molecule were prepared and tested for killing potency. Compounds tested were BIM-1, 11, 25, 26, 28, 29, 30, 32, 34. A solution of 5% DMSO in NYSM buffer was used as a negative control.
A standard commercially available semi-solid lepidopteran diet was prepared following manufacturer's instructions (Frontier, multi-species diet). […] LB+Kanamycin (antibiotic) growth media is the negative control for bacterial cultures. […]
(§4) For each of 3 replicates, 200 μl of diet was prepared in wells of a 96-well plate and the diet plates were warmed to room temperature prior to dispensing samples. […] All bioassays were assessed visually to record larval mortality and growth inhibition.

Cry1Fa resistant FAW = assay: Killing of Cry1Fa resistant fall armyworm; type: in vivo, Spodoptera frugiperda; settings: 1000 ppm BIM compound, 20 μl on diet surface; neonates; 5-7 days
Protocol: as §2, §3
A standard commercially available semi-solid lepidopteran diet was prepared following manufacturer's instructions (Frontier, multi-species diet). […] LB+Kanamycin (antibiotic) growth media is the negative control for bacterial cultures. Cry1Fa is a positive control prepared as E. coli cells expressing the full-length Cry1Fa protein resuspended in PBS buffer at half the volume of the original growth culture resulting in 2× concentration of cells. Vip3A is a positive control prepared as E. coli whole cell culture expressing Vip3A.
For each of 3 replicates, 200 μl of diet was prepared in wells of a 96-well plate and the diet plates were warmed to room temperature prior to dispensing samples. After 750 μl NYSM buffer was added to 750 μl from each 1.0-ml volume to prepare samples of 1.5 ml BIM compound at 1000 ppm for testing, BIM solutions were vortexed and 20 μl were dispensed onto the diet surface in each of 16 wells using a repeating pipettor. These steps were repeated for each sample and control for each insect population being tested. BIM compound and control solutions were allowed to absorb into the diet in a biosafety hood until the diet surface was visibly dry. Once dry, wells were sealed with a clear membrane. Two pin holes were poked through the membrane in each well to maintain appropriate humidity level and aeration. Each well was infested with a single neonate larva, and the wells were resealed with perforated membrane to prevent escape. The infested plates were incubated in environmental chambers at 26° C. and 50% relative humidity for 5-7 days. All bioassays were assessed visually to record larval mortality and growth inhibition.

[13] = system: fall armyworm (FAW), susceptible and the two resistant varieties (Cry1 and Vip3A); assay: Killing of susceptible and Bt-resistant fall armyworm (strain not specified); type: in vivo, Spodoptera frugiperda; settings: 1000 ppm BIM compound, 20 μl on diet surface, neonate larvae, at 7 days
Protocol: as §2
FAW eggs were incubated at approximately 26° C. at 50% relative humidity until eclosion (approximately 3 days) and the hatch was timed to within 12 hours of infesting the diet plates. BIM compounds were obtained from frozen stocks, thawed, suspended in 5% DMSO along with NYSM buffer to provide a solution of 2000 ppm BIM compound in a total volume of 1.0 ml, and stored at −20° C. For testing, a single tube of each BIM compound sample was thawed at 4° C. NYSM buffer was warmed to room temperature. A volume of 750 μl. […]
as §4

[14] = first instar larvae, calculated from killing dose curves FIG. 3D to 3NN, read-out: LD50 (the source's name)

Compound: c1ccc2[nH]c(Cc3c[nH]c4ccccc34)cc2c1 [3-((1H-indol-2-yl)methyl)-1H-indole, 3-((1H-Indol-2-yl)methyl)-1H-indole]
- LC50 ([1]; first instar larvae, N=16 per concentration, representative curve fit): 598 µg/mL and 2.4 mM
- activity against S. frugiperda ([1]; first instar larvae): active
- LC50 (Aedes aegypti larvae): 5.5 µg/mL and 22.5 µM
- activity against Aedes aegypti (Aedes aegypti): active

Compound: c1ccc2c(Cc3c[nH]c4ccccc34)c[nH]c2c1 [Arundine, 3,3′-diindolylmethane]
- % killing ([2]; 156 μg/mL arundine): 72%
- % killing ([2]; 625 μg/mL arundine): 94%
- % killing ([2]; 2500 μg/mL arundine): 72%
- % killing ([3]; 156 μg/mL arundine): 27%
- % killing ([3]; 625 μg/mL arundine): 50%
- % killing ([3]; 2500 μg/mL arundine): 80%
- % killing ([4]; 156 μg/mL arundine): 23%
- % killing ([4]; 625 μg/mL arundine): 100%
- % killing ([4]; 2500 μg/mL arundine): 100%
- % killing ([5]; 156 μg/mL arundine): 100%
- % killing ([5]; 625 μg/mL arundine): 100%
- % killing ([5]; 2500 μg/mL arundine): 100%
- % killing ([6]; 156 μg/mL arundine): 100%
- % killing ([6]; 625 μg/mL arundine): 70%
- % killing ([6]; 2500 μg/mL arundine): 97%
- % killing ([7]; 156 μg/mL arundine): 47%
- % killing ([7]; 625 μg/mL arundine): 90%
- % killing ([7]; 2500 μg/mL arundine): 83%
- % killing ([8]; 156 μg/mL arundine): 74%
- % killing ([8]; 625 μg/mL arundine): 74%
- % killing ([8]; 2500 μg/mL arundine): 87%
- % killing ([9]; 156 μg/mL arundine): 40%
- % killing ([9]; 625 μg/mL arundine): 50%
- % killing ([9]; 2500 μg/mL arundine): 90%
- % killing ([10]; 156 μg/mL arundine): 21%
- % killing ([10]; 625 μg/mL arundine): 50%
- % killing ([10]; 2500 μg/mL arundine): 39%
- % killing ([11]; 156 μg/mL arundine): 41%
- % killing ([11]; 625 μg/mL arundine): 72%
- % killing ([11]; 2500 μg/mL arundine): 93%
- % killing ([1]; 156 μg/mL arundine): 40%
- % killing ([1]; 625 μg/mL arundine): 63%
- % killing ([1]; 2500 μg/mL arundine): 97%
- LC50 [1, 14]: 1820 µM
- mortality [12]: greater than 95%

Compound: Clc1ccc2c(Cc3c[nH]c4cc(Cl)ccc34)c[nH]c2c1 [BIM-11]
- LC50 [1, 14]: 1180 µM
- lethality (Vip3A resistant FAW; Vip3A-resistant neonates): 100%

Compound: Clc1ccc2c(C(c3ccccc3)c3c[nH]c4cc(Cl)ccc34)c[nH]c2c1 [BIM-25]
- LC50 [1, 14]: 504 µM
- lethality (Cry1Fa resistant FAW): strong lethality
- lethality (Vip3A resistant FAW; neonates): strong lethality

Compound: Clc1ccc2c(C(Cc3ccccc3)c3c[nH]c4cc(Cl)ccc34)c[nH]c2c1 [BIM-26]
- lethality [13]: 60-70%
- LC50 [1, 14]: 581 µM

Compound: O=[N+]([O-])c1ccc(C(c2c[nH]c3cc(Cl)ccc23)c2c[nH]c3cc(Cl)ccc23)cc1 [BIM-32]
- lethality (Cry1Fa resistant FAW): strong lethality
- lethality (Vip3A resistant FAW; neonates): strong lethality
